From ChEMBL document CHEMBL1275256, “Contribution of a plasmid-borne blaOXA-58 gene with its hybrid promoter provided by IS1006 and an ISAba3-like element to beta-lactam resistance in acinetobacter genomic species 13TU” (2010)
Converted amounts (≈) assume the structure as drawn. The source made the active and inactive calls. The rule behind the calls is not given here.

Assays:
Assay type in all cases: functional
[1] = Antimicrobial activity against Acinetobacter genomic species 13TU ATCC 17903 harboring pOXA-58-5 plasmid by agar dilution method; conditions: Acinetobacter nosocomialis
[2] = Antimicrobial activity against Acinetobacter genomic species 13TU ATCC 17903 harboring pOXA-58-6 plasmid by agar dilution method; conditions: Acinetobacter nosocomialis
[3] = Antimicrobial activity against Acinetobacter genomic species 13TU by agar dilution method; conditions: Acinetobacter nosocomialis
[4] = Antimicrobial activity against Acinetobacter genomic species 13TU ATCC 17903 harboring pYMAb3 plasmid by agar dilution method; conditions: Acinetobacter nosocomialis
[5] = Antimicrobial activity against Acinetobacter genomic species 13TU ATCC 17903 harboring pOXA-58-7 plasmid by agar dilution method; conditions: Acinetobacter nosocomialis
[6] = Antimicrobial activity against Acinetobacter genomic species 13TU ATCC 17903 by agar dilution method; conditions: Acinetobacter nosocomialis
[7] = Antimicrobial activity against Acinetobacter genomic species 13TU ATCC 17903 harboring pOXA-58-5 plasmid by Vitek II system in presence of Tazobactam; conditions: Acinetobacter nosocomialis
[8] = Antimicrobial activity against Acinetobacter genomic species 13TU by Vitek II system in presence of Tazobactam; conditions: Acinetobacter nosocomialis
[9] = Antimicrobial activity against Acinetobacter genomic species 13TU ATCC 17903 by Vitek II system in presence of Tazobactam; conditions: Acinetobacter nosocomialis
[10] = Antimicrobial activity against Acinetobacter genomic species 13TU ATCC 17903 harboring pOXA-58-5 plasmid by Vitek II system; conditions: Acinetobacter nosocomialis
[11] = Antimicrobial activity against Acinetobacter genomic species 13TU ATCC 17903 harboring pOXA-58-7 plasmid by Vitek II system; conditions: Acinetobacter nosocomialis
[12] = Antimicrobial activity against Acinetobacter genomic species 13TU ATCC 17903 by Vitek II system; conditions: Acinetobacter nosocomialis
[13] = Antimicrobial activity against Acinetobacter genomic species 13TU by Vitek II system; conditions: Acinetobacter nosocomialis
[14] = Antimicrobial activity against Acinetobacter genomic species 13TU ATCC 17903 harboring pYMAb3 plasmid by Vitek II system; conditions: Acinetobacter nosocomialis
[15] = Antimicrobial activity against Acinetobacter genomic species 13TU ATCC 17903 harboring pOXA-58-6 plasmid by Vitek II system; conditions: Acinetobacter nosocomialis
[16] = system: Acinetobacter nosocomialis; experiment: Antimicrobial activity against Acinetobacter genomic species 13TU ATCC 17903 harboring pOXA-58-6 plasmid by Etest method
[17] = system: Acinetobacter nosocomialis; experiment: Antimicrobial activity against Acinetobacter genomic species 13TU ATCC 17903 harboring pOXA-58-5 plasmid by Etest method

Row | SMILES | MIC [1] [µg/mL] | MIC [2] [µg/mL] | MIC [3] [µg/mL] | MIC [4] [µg/mL] | MIC [5] [µg/mL] | MIC [6] [µg/mL] | MIC [7] [µg/mL] | MIC [8] [µg/mL] | MIC [9] [µg/mL] | MIC [10] [µg/mL] | MIC [11] [µg/mL] | MIC [12] [µg/mL] | MIC [13] [µg/mL] | MIC [14] [µg/mL] | MIC [15] [µg/mL] | Activity [16] | Activity [17]
1 | CC(C)(O/N=C(\C(=O)N[C@@H]1C(=O)N2C(C(=O)[O-])=C(C[n+]3ccccc3)CS[C@H]12)c1csc(N)n1)C(=O)O [CEFTAZIDIME] | 4 (≈ 7.32 µM) | 4 (≈ 7.32 µM) | 16 (≈ 29.3 µM) | 4 (≈ 7.32 µM) | 4 (≈ 7.32 µM) | 4 (≈ 7.32 µM) | – | – | – | – | – | – | – | – | – | – | –
2 | CCN1CCN(C(=O)N[C@@H](C(=O)N[C@@H]2C(=O)N3[C@@H]2SC(C)(C)[C@@H]3C(=O)O)c2ccccc2)C(=O)C1=O [PIPERACILLIN] | > 1020 | 512 (≈ 989 µM) | > 1020 | 16 (≈ 30.9 µM) | 32 (≈ 61.8 µM) | 16 (≈ 30.9 µM) | ≥ 128 | ≥ 128 | ≤ 4 | – | – | – | – | – | – | – | –
3 | CO/N=C(\C(=O)N[C@@H]1C(=O)N2C(C(=O)O)=C(COC(N)=O)CS[C@H]12)c1ccco1 [CEFUROXIME] | – | – | – | – | – | – | – | – | – | ≥ 64 | 16 (≈ 37.7 µM) | 16 (≈ 37.7 µM) | ≥ 64 | 16 (≈ 37.7 µM) | 16 (≈ 37.7 µM) | – | –
4 | CC1(C)S[C@@H]2[C@H](NC(=O)[C@H](N)c3ccc(O)cc3)C(=O)N2[C@H]1C(=O)O [AMOXICILLIN] | > 1020 | > 1020 | > 1020 | 64 (≈ 175 µM) | 256 (≈ 701 µM) | 64 (≈ 175 µM) | – | – | – | – | – | – | – | – | – | – | –
5 | CO/N=C(\C(=O)N[C@@H]1C(=O)N2C(C(=O)[O-])=C(C[N+]3(C)CCCC3)CS[C@H]12)c1csc(N)n1 [CEFEPIME] | 4 (≈ 8.32 µM) | 2 (≈ 4.16 µM) | 128 (≈ 266 µM) | 2 (≈ 4.16 µM) | – | 2 (≈ 4.16 µM) | – | – | – | – | – | – | – | – | – | – | –
6 | C[C@@H](O)[C@H]1C(=O)N2C(C(=O)O)=C(S[C@@H]3CN[C@H](C(=O)N(C)C)C3)[C@H](C)[C@H]12 [MEROPENEM] | 16 (≈ 41.7 µM) | 8 (≈ 20.9 µM) | 8 (≈ 20.9 µM) | 0.5 (≈ 1.3 µM) | 0.5 (≈ 1.3 µM) | 0.5 (≈ 1.3 µM) | – | – | – | – | – | – | – | – | – | inactive | –
7 | C[C@@H](O)[C@H]1C(=O)N2C(C(=O)O)=C(SCCNC=N)C[C@H]12 [IMIPENEM ANHYDROUS] | 32 (≈ 107 µM) | 16 (≈ 53.4 µM) | 16 (≈ 53.4 µM) | 0.25 (≈ 0.835 µM) | 0.5 (≈ 1.67 µM) | 0.25 (≈ 0.835 µM) | – | – | – | – | – | – | – | – | – | – | inactive
8 | CC1(C)S[C@@H]2[C@H](NC(=O)[C@H](C(=O)O)c3ccsc3)C(=O)N2[C@H]1C(=O)O [TICARCILLIN] | > 1020 | > 1020 | > 1020 | 16 (≈ 41.6 µM) | 256 (≈ 666 µM) | 16 (≈ 41.6 µM) | – | – | – | – | – | – | – | – | – | – | –
